Measurements reported in patent US20160045687A1, “NASAL ADMINISTRATION” (OPTINOSE AS, priority 2013, published 2016).
Counter-ions that a name gives are not always drawn. Like-named read-outs stand apart in the source and are kept apart here.

Key:
[1] = cited from earlier work
[2] = system: episodic migraine; conditions: continuous carbon dioxide infusion; cited from earlier work
[3] = system: cultured rat trigeminal ganglion cells; conditions: carbon dioxide treatment of cultures under isohydric conditions; cited from earlier work
[4] = system: post-surgical recalcitrant CRS without polyps; experiment: Example #11: placebo controlled study of fluticasone with Breath Powered liquid device; format: in vivo, human; conditions: 12 weeks
Description: Using the same drug-device combination product as Example #10, a small placebo controlled study (N=20) was performed in patients with post-surgical recalcitrant CRS without polyps, producing clinically significant improvements on both objective measures and subjective symptoms.

[5] = Fluticasone bioavailability at higher Breath Powered doses; format: in vivo, human; conditions: 400 ug or 800 ug twice daily as compared to 200 ug daily conventionally
[6] = system: chronic rhinosinusitis (CRS) with nasal polyps; experiment: Example #10: 3-month placebo controlled study of fluticasone with Breath Powered liquid device; format: in vivo, human
[7] = system: migraine headaches; experiment: Examples #4/#7: double-blind crossover head-to-head study, Breath Powered sumatriptan vs 100 mg tablet, blinded pooled data; format: in vivo, human; conditions: 16 mg nasal with placebo tablet; scenario inferred from blinded data
Description: The study is a cross-over design where each patient enrolled will treat headaches with each of the treatments. Specifically, patients will treat up to 5 headaches with a treatment and then cross over to treat up to 5 headaches with the other. With each headache, the patient uses the device and takes a tablet, only one of which will be active. From data on over 400 headaches, as yet unblinded, the results obtained at the 30 min timepoint (headache relief 30 minutes after taking medication) for moderate or severe headaches is 54%.
One set of data include blinded head-to-head (H2H) results. They generally show a high response rate In blinded data, i.e., a reduction from severe/moderate migraine or mild or none.

[8] = Example #3: sumatriptan PK in nitroglycerin (GTN)-induced migraine vs healthy subjects; conditions: human, in vivo, Breath Powered device
[9] = system: single migraine attack; experiment: Example #1: headache relief after 16 mg intranasal Breath Powered sumatriptan vs 100 mg oral sumatriptan; format: in vivo, human
Excerpt: The purpose of this study was to study the onset of headache relief following a dose of sumatriptan. The study population included 436 subjects.
Headache relief is defined as a reduction from moderate (grade 2) or severe (grade 3) to none (grade 0) or mild (grade 1) pain.

In the case of `CN1C[C@H](C(=O)N[C@]2(C)O[C@@]3(O)[C@@H]4CCCN4C(=O)[C@H](Cc4ccccc4)N3C2=O)C[C@@H]2c3cccc4[nH]cc(c34)C[C@H]21` [DHE, dihydroergotamine mesylate], the bioavailability ([1]; administered intranasally) is listed as about 40% and the bioavailability ([1]; given orally) is listed as “less than 1%”.

In the case of `O=C=O` [carbon dioxide], the “2-hour pain free response” value [2] is given as 25.0% and the “effect on CGRP secretion” value [3] is given as “significantly repressed the stimulatory effects of KCI, capsaicin, and nitric oxide on CGRP secretion”.

In the case of `C[C@@H]1C[C@H]2[C@@H]3C[C@H](F)C4=CC(=O)C=C[C@]4(C)[C@@]3(F)[C@@H](O)C[C@]2(C)[C@@]1(O)C(=O)SCF` [fluticasone], the “endoscopy score for edema (median scores)” value [4] is reported as −4.0, the bioavailability [5] is reported as “no significantly greater bioavailability” and the tolerability ([6]; 400 μg b.i.d., 3 months) is reported as “well tolerated”. The “subjects with complete elimination of the polyps” value ([6]; 400 μg b.i.d., after 3 months) was about 20%, the “proportion of subjects with improvement in summed polyp score” value (“proportion of subjects with improvement” for short) ([6]; 4 weeks) was 22% and the “proportion of subjects with improvement” value ([6]; 8 weeks) was 43%. The “proportion of subjects with improvement” value ([6]; 12 weeks) was 57%, the “change in polyp score” value ([6]; after 12 weeks) was −0.98 and the summed polyp score ([6]; after 12 weeks, baseline 2.8) was 1.8.

For `CNS(=O)(=O)Cc1ccc2[nH]cc(CCN(C)C)c2c1` [sumatriptan], the “suggested response rate at 30 minutes” value [7] was 70%, the bioavailability ([8]; other: intranasal powder, 7.5 mg delivered to the side of the migraine during a GTN attack in migraineurs) was 27% and the Cmax ([8]; other: intranasal, 7.5 mg) was 11 ng/mL. The “response rate (headache relief) at 30 minutes” value ([9]; 16 mg of sumatriptan in the Breath Powered device and oral tablet placebo) was 67% and the “response rate (headache relief) at 30 minutes” value ([9]; 100 mg of sumatriptan orally with the placebo device) was 39%.

In the case of `CN(C)CCc1c[nH]c2ccc(C[C@H]3COC(=O)N3)cc12` [zolmitriptan], the “nasal fraction of the total absorption” value ([1]; conventional nasal spray) is given as “approximately 30%”.
